Measurements reported in PubChem BioAssay AID449764 (Southern Research Specialized Biocontainment Screening …, 2010).
pIC50: −log10 of the molar value.

Test system: Mycobacterium tuberculosis H37Rv growth inhibition, no glycerol
Experiment: Mycobacterium tuberculosis H37Rv growth inhibition, no glycerol, confirmatory dose response (AID 449764);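 also: growth read after 7 days of incubation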
Conditions: for IC90: measured here: IC90 growth inhibition

## CCOC(=O)c1c(NC(=O)CSc2nc3ccc(OC)cc3[nH]2)sc2c1CC(C)(C)NC2(C)C
  pIC50: 4.40
  IC90: 53.7 µM

## N#C/C(=N/Nc1ccc(OC(F)(F)F)cc1)C(N)=S
  pIC50: 5.92
  IC90: 1.74 µM

## O=C(NC(=S)N1CCc2ccccc21)c1ccc(Br)o1
  pIC50: 4.98
  IC90: 15.5 µM

## CCN(C[C@H]1N[C@@](Cc2ccccc2)(C(=O)OC)[C@H]2C(=O)N(Cc3ccccc3)C(=O)[C@@H]12)C(=O)Nc1ccc(C(F)(F)F)cc1
  pIC50: 5.09
  IC90: 9.81 µM

## O=c1c2c(nc3nc(NCc4ccc(Cl)cc4)[nH]n13)CCC2
  pIC50: 5.04
  IC90: 14.3 µM

## CCCCCc1ccc(S(=O)(=O)NCCc2ccncc2)cc1
  pIC50: 4.44
  IC90: 47 µM

## C[Se]C[C@@H](N)C(=O)O
  pIC50: 4.05
  IC90: 95.7 µM

## O=C1C=C(c2ccc3[nH]ccc3c2)C[C@@H](c2ccc(Cl)cc2)C1
  pIC50: 4.07
  IC90: > 100 µM

## C=C(C)C1CC=C(CN2CCN(Cc3ccccc3)CC2)CC1 (stereo not given)
  pIC50: 4.75
  IC90: 22 µM

## CCOc1cc(NC(=O)CCl)c(OCC)cc1NC(C)=O
  pIC50: 6.02
  IC90: 51.8 µM

## CC(C)(C)OC(=O)NNC(=S)NC1CCCCC1
  IC90: > 100 µM

## O=C(/C(=C/c1ccc(Cl)cc1)c1nc2ccccc2[nH]1)c1cccs1
  pIC50: 4.45
  IC90: 96.8 µM

## O=C(/C=C/c1ccccc1)N1CCN(CCN2C(=O)c3cccc4cccc(c34)C2=O)CC1
  pIC50: 5.61
  IC90: 3.96 µM

## CCOC(=O)c1ccc(N=c2sc(C(=O)OC)cc(=O)n2CCCN2CCOCC2)cc1
  pIC50: 5.04
  IC90: 16.9 µM

## Cc1cccc(C(=O)NNC(=S)NC(=O)c2ccccc2)c1
  pIC50: 5.81
  IC90: 2.69 µM

## Cc1cccc(-c2oc3ccc(-c4ccc5c(c4)OCO5)cc3c2C#Cc2cncn2C)c1
  pIC50: 5.54
  IC90: 3.23 µM

## CCc1ccc(-c2cc(C)no2)cc1S(=O)(=O)NCCCN1CCN(c2ccccc2)CC1
  pIC50: 4.41
  IC90: 47.2 µM

## O=C(CSc1ccccn1)Nc1nonc1[N+](=O)[O-]
  pIC50: 5.24
  IC90: 6.24 µM

## Cc1sc2ncnc(Oc3ccc(-n4ccnc4)cc3)c2c1C
  pIC50: 4.41
  IC90: 61 µM

## C=CC[n+]1ccn(-c2nc3ccccc3nc2[N-]S(=O)(=O)c2cccs2)c1
  pIC50: 4.37
  IC90: 48.1 µM

## CCCCCc1nc2c(c(=O)c3ccccc3n2C)c(=O)n1C1CCCCCC1
  pIC50: 4.26
  IC90: 77.5 µM

## O=C1C(=O)N(c2ccccc2)c2ccccc21
  pIC50: 4.75
  IC90: 34 µM

## Cc1ccccc1NC(=O)Cc1nc(COC(=O)/C=C/c2ccccc2)cs1
  pIC50: 4.17
  IC90: 92.3 µM

## Cn1c(CNc2ccccc2O)nc2ccccc21
  pIC50: 5.52
  IC90: 3.36 µM

## CCCCOCCCn1c(-c2ccco2)nc2nc3ccccc3nc21
  pIC50: 4.00
  IC90: > 100 µM

## O=C(c1cc2cc(F)ccc2[nH]1)N(Cc1cccnc1)CC1CCCN(C2CCCCC2)C1 (stereo not given)
  pIC50: 4.37
  IC90: 46.1 µM

## Cc1sc2ncnc(N3CCC(C(=O)NCC(=O)Nc4ccc(F)c(F)c4)CC3)c2c1C
  pIC50: 4.33
  IC90: 53.1 µM

## COc1cc2c(cc1OC)C1(Nc3c-2c(-c2ccccc2)nn3-c2ccccc2)C(=O)Nc2ccccc21 (stereo not given)
  pIC50: 4.09
  IC90: > 100 µM

## Cc1cccc(/C=C2/S/C(=N/N=C3\CC4CCC3(C)C4(C)C)NC2=O)c1 (stereo not given)
  pIC50: 4.59
  IC90: > 100 µM

## CCN1/C(=C/c2ccc3cc(C)ccc3[n+]2CC)Sc2ccccc21
  pIC50: 5.56
  IC90: 3.07 µM

## CCc1ccc(/C(C)=N/Nc2cc(Cl)nc(C)n2)cc1
  pIC50: 4.47
  IC90: 59.5 µM

## CCOc1ccc(NC(=O)CSc2nc(O)c(C)c(=O)n2-c2ccc(F)cc2)cc1
  pIC50: 4.46
  IC90: 59.2 µM

## Cc1nn(CCc2nn[nH]n2)c2nc(-c3ccc(Br)cc3)cc(C(F)(F)F)c12
  pIC50: 5.08
  IC90: 16.8 µM

## CNc1ccccc1C(=O)OC(C)C(=O)Nc1ccc(Cl)cn1 (stereo not given)
  pIC50: 4.45
  IC90: 65.3 µM

## Cc1cc(-c2c(C)[nH]n(-c3ccccc3)c2=O)n[nH]1
  pIC50: 4.40
  IC90: > 100 µM

## COc1ccc(NC(=O)CSc2nnc(-c3ccccn3)n2N)cc1Cl
  pIC50: 4.25
  IC90: > 100 µM

## Oc1ccccc1-c1nnc(COc2ccccc2)o1
  pIC50: 4.72
  IC90: 28.9 µM

## NNc1nc2ccc(Cl)cc2s1
  pIC50: 4.20
  IC90: 70.6 µM

## CCC(=O)c1ccc(OCC(O)CN2CCN(c3cccc(C(F)(F)F)c3)CC2)cc1 (stereo not given)
  pIC50: 4.71
  IC90: 26.7 µM

## O=C(c1ccccc1)c1ccc(OCCOCCN2CCN(Cc3ccccc3)CC2)cc1
  pIC50: 4.62
  IC90: 27.5 µM

## COC(=O)c1c(NC(=O)C(=O)N2CCCC2)sc2c1CC(C)(C)OC2
  pIC50: 4.18
  IC90: > 100 µM

## COC(=O)CC(=O)N1CCN(c2ccc(Cl)c(Cl)c2)CC1
  pIC50: 4.35
  IC90: 74.8 µM

## COC(=O)N/N=C/c1c[n+]([O-])c2ccccc2[n+]1[O-]
  pIC50: 4.73
  IC90: 27.5 µM
